Assays:
[1] = system: H3N2 A/Moscow/10/99 virus; assay: Cytopathic effects induced by influenza virus on A549 cell layer (photon microscopy); format: cell-based, H3N2 A/Moscow/10/99 virus in human A549 cells; conditions: A549, 10 μM, MOI 2×10^−3, from 24 hpi onward, molecule added 14 h before infection and retained (FIG. 1)
Experimental: (§1) For all the following examples, the experiments were carried out at a temperature of 37° C. The culture medium used is DMEM (Ref 41966, Gibco), supplemented with trypsin (1 ug/mL, Sigma) during the infections.
A549 cells (ATCC, American Type Culture Collection CCL185) are cells derived from a lung carcinoma. […] Several ex-vivo studies on lung tissues from infected patients have shown that epithelial cells of this type probably constitute the primary influenza virus infection site (Nicholls et al. Nat. Med. 2007 February; 13(2):147-9, van Riel et al. Science. 2006 Apr. 21; 312(5772):399). These cells are therefore considered to be relevant for studying influenza viruses and are, consequently, very widely used in the field of fundamental research on influenza viruses.
The observation and monitoring of the cytopathic effects induced by the virus over time generally allow a first evaluation of the degree of infection of the cell layer. The cytopathic effect induced by the virus is characterized in particular by fusion of the infected cells with one another, forming multinucleated cell structures (syncytia). By photon microscopy, observation of the amount and of the scale of these structures on the cell layer makes it possible to obtain an estimation of the degree of infection.

[2] = system: H3N2 A/Moscow/10/99 virus; assay: Infectious titer (TCID50/ml) in supernatant of infected A549 cells; format: cell-based, H3N2 A/Moscow/10/99 virus in human A549 cells; conditions: A549, from 24 hpi onward, presence vs absence of Nutlin-3 (FIG. 2A)
[3] = system: H3N2 A/Moscow/10/99 virus; assay: Copies of viral genome M/ml in supernatant of infected MDCK cells by RT-qPCR; format: cell-based, H3N2 A/Moscow/10/99 virus in MDCK cells (dog); conditions: MOI 10^−3, 0.1, 1 and 10 μM
Experimental: (§2) FIGS. 2 to 7 show the observed amounts of copies of viral genome M/ml in the culture supernatant (M for the segment of viral genome encoding the M1 and M2 viral proteins), with various culture conditions and after various infection times.
as §1
The MDCK line (ATCC No. CCL-34) is the most widely used line for the laboratory production of influenza virus. It is a cell line which is also registered and with which batches of vaccine have been produced by Novartis and Solvay.
At 24 hpi, up to 19 times more copies of genome M/ml are obtained in the presence of Nutlin-3 compared with the control.

[4] = system: H3N2 A/Moscow/10/99 virus; assay: Copies of viral genome M/ml in supernatant of infected A549 cells by real-time RT-qPCR; format: cell-based, H3N2 A/Moscow/10/99 virus in human A549 cells; conditions: for times more copies of genome in supernatant than control without Nutlin-3: A549, 10 hpi (single viral cycle); for times more copies M/ml of supernatant than the control: MOI 10^−3, pretreatment
Experimental: as §2, §1
In order to gain a more precise idea, the quantification of the number of copies of viral genome M/ml of supernatant was then carried out, by extraction of the viral RNAs and quantification by real-time RT-qPCR (FIG. 2B). At 48 hpi, 6.66×10^6 copies M/ml were measured in the absence of Nutlin-3, compared with 2.44×10^8 copies M/ml in the presence of Nutlin-3, i.e. a gain of more than 36-fold in terms of viral production. The same calculation performed at 72 hpi indicates a gain of 88-fold in favor of the conditions where Nutlin-3 is used.
The A549 cells were infected with various amounts of virus (MOI 0.01, 0.1 and 1), in the presence or absence of Nutlin-3, and the amount of copies M/ml of supernatant was measured by RT-qPCR after a single viral cycle (10 hpi) or after several viral cycles (28 hpi). The cells were brought into contact with Nutlin-3, either 14 h before the infection (T=−14 h), or immediately at the time of infection (T=0 h) (FIG. 3). In any event, the Nutlin-3 is added in one go.
A similar experiment was carried out with an MOI of 10^−3, while modifying the time at which the pretreatment is carried out (14 h compared with 10 h before infection). At 48 hpi, Nutlin-3 makes it possible to obtain 1.5, 5.7 and 40 times more copies M/ml of supernatant than the control for respective concentrations of 0.1, 1 and 10 μM (FIG. 4).
This molecule was used at concentrations of 2 and 20 μM with an MOI of 10^−3.

| SMILES | cytopathic effect compared with infected cells without Nutlin-3 [1] | gain in infectious titer (TCID50/ml) in the supernatant [2] | times more copies of genome M/ml compared with the control ([3]; 24 hpi, pretreatment 14 h before infection (FIG. 5)) | effect on viral titer (copies of genome M/ml) in cell supernatants ([3]; pretreatment 14 h before infection, after several consecutive viral cycles (FIG. 5)) | times more copies of genome in supernatant than control without Nutlin-3 ([4]; treatment started at T=0, MOI 0.1 (FIG. 3)) | times more copies of genome in supernatant than control without Nutlin-3 ([4]; treatment started at T=0, MOI 1 (FIG. 3)) | gain in viral production (copies M/ml) vs absence of Nutlin-3 ([4]; A549, 48 hpi (FIG. 2B)) | times more copies M/ml of supernatant than the control ([4]; A549, 48 hpi, 0.1 μM (FIG. 4)) | times more copies M/ml of supernatant than the control ([4]; A549, 48 hpi, 1 μM (FIG. 4)) | times more copies M/ml of supernatant than the control ([4]; A549, 48 hpi, 10 μM (FIG. 4)) | copies of viral genome M/ml of supernatant ([4]; A549, 48 hpi, in the presence of Nutlin-3 (FIG. 2B)) | gain in viral production (copies M/ml) vs absence of Nutlin-3 ([4]; A549, 72 hpi (FIG. 2B)) | times more copies of genome M in the supernatant compared with the control ([4]; A549, 48 hpi, MOI 10^−3, 2 μM (FIG. 6)) | times more copies of genome M in the supernatant compared with the control ([4]; A549, 72 hpi, MOI 10^−3, 20 μM (FIG. 6)) |
| --- | --- | --- | --- | --- | --- | --- | --- | --- | --- | --- | --- | --- | --- | --- |
| COc1ccc(C2=NC(c3ccc(Cl)cc3)C(c3ccc(Cl)cc3)N2C(=O)N2CCNC(=O)C2)c(OC(C)C)c1 (racemic) [Nutlin-3, (±)-4-[4,5-bis(4-chlorophenyl)-2-(2-isopropoxy-4-methoxy-phenyl)-4,5-dihydroimidazole-1-carbonyl]piperazin-2-one] | more marked cytopathic effect | gain of one log 10 difference | up to 19 times | greatly increases the viral titer | 11 times | 50 times | more than 36 fold | 1.5 times | 5.7 times | 40 times | 2.44×10^8 copies M/ml | 88 fold | – | – |
| Cc1ccc2ccc(C(Nc3ccccc3)c3ccccc3)c(O)c2n1 (centres unmarked) [NSC66811, 2-methyl-7-[phenyl(phenylamino)methyl]-8-quinolinol] | – | – | – | – | – | – | – | – | – | – | – | – | approximately 6 times | approximately 5 times |

— US9381238B2 (priority 2010, dated 2016)
